Source: EP0321364A2, “Orally administrable cephalosporin derivatives, and the production and uses thereof” (ZAIDAN HOJIN BISEIBUTSU KAGAKU KENKYU KAI, priority 1987, dated 1989)
≈ marks a conversion by molar mass, not a printed value. Read-outs that look alike come from different tables or passages of the source.

Columns and labels:
[1] = tested on: Rms213/Escherichia coli K-12 W3630; assay: MIC, serial dilution method in Müller-Hinton agar; type: cell-based; settings: 18 h
Method: (§1) The antibacterial activities of the cephalosporin compounds of the formula (I) according to this invention, specifically the final product compounds of the Examples 1 to 6 given hereinafter, were assayed in term of their minimum inhibitory concentrations (MIC; mcg/ml) against various test bacteria, as determined according to a standard serial dilution method in Müller-Hinton agar medium (a product of Difico company), where the incubation was made at 37°C for 18 hours. For the comparison purpose, the antibacterial spectrum of a known compound, Cefalexin (abbreviated as CEX) was also assayed in the same way as above.

[2] = tested on: Pseudomonas aeruginosa IFO3445; assay: MIC, serial dilution method in Müller-Hinton agar; type: cell-based; settings: 37°C, 18 hours
Method: as §1

[3] = tested on: Rte16/Escherichia coli K-12 W3630; assay: MIC, serial dilution method in Müller-Hinton agar; type: cell-based; settings: 18 h
Method: as §1

[4] = tested on: Klebsiella pneumoniae PCI602; assay: MIC, serial dilution method in Müller-Hinton agar; type: cell-based
Method: as §1

[5] = tested on: Rms139/MI Pseudomonas aeruginosa; assay: MIC, serial dilution method in Müller-Hinton agar; type: cell-based; settings: 18 h
Method: as §1

[6] = tested on: Proteus morganii IFO3848; assay: MIC, serial dilution method in Müller-Hinton agar; type: cell-based; settings: Morganella morganii; Proteus morganii IFO3848; Müller-Hinton agar, 37°C, 18 hours; read-out: MIC
Method: as §1

[7] = tested on: Salmonella typhi 901; assay: MIC, serial dilution method in Müller-Hinton agar; type: cell-based; settings: Salmonella enterica, 18 h
Method: as §1

[8] = tested on: Proteus rettgeri IFO3850; assay: MIC, serial dilution method in Müller-Hinton agar; type: cell-based; settings: Providencia rettgeri
Method: as §1

[9] = tested on: Staphylococcus aureus FDA209P JC-1; assay: MIC, serial dilution method in Müller-Hinton agar; type: cell-based
Method: as §1

[10] = tested on: Salmonella paratyphi 1015; assay: MIC, serial dilution method in Müller-Hinton agar; type: cell-based; settings: Salmonella enterica, 37°C, 18 hours
Method: as §1

[11] = tested on: Rms823/Escherichia coli K-12 W3630; assay: MIC, serial dilution method in Müller-Hinton agar; type: cell-based; settings: 18 h
Method: as §1

[12] = tested on: Escherichia coli K-12 C600; assay: MIC, serial dilution method in Müller-Hinton agar; type: cell-based
Method: as §1

[13] = tested on: Staphylococcus aureus Terajima; assay: MIC, serial dilution method in Müller-Hinton agar; type: cell-based; settings: 37°C, 18 hours
Method: as §1

[14] = tested on: Salmonella schottmulleri 8006; assay: MIC, serial dilution method in Müller-Hinton agar; type: cell-based; settings: 37°C, 18 hours
Method: as §1

[15] = tested on: Bacillus subtilis ATCC6633; assay: MIC, serial dilution method in Müller-Hinton agar; type: cell-based; settings: 37°C, 18 hours
Method: as §1

[16] = tested on: Klebsiella oxytosa GN10560; assay: MIC, serial dilution method in Müller-Hinton agar; type: cell-based; settings: Klebsiella oxytosa GN10560, cefuroximase producing strain, 37°C, 18 hours
Method: as §1

[17] = tested on: Proteus vulgaris OX-19; assay: MIC, serial dilution method in Müller-Hinton agar; type: cell-based; settings: OX19, 37°C, 18 hours
Method: as §1

[18] = tested on: Escherichia coli NIHJ-JS-2; assay: MIC, serial dilution method in Müller-Hinton agar; type: cell-based
Method: as §1

[19] = tested on: Rms212/Escherichia coli K-12 W3630; assay: MIC, serial dilution method in Müller-Hinton agar; type: cell-based; settings: 18 h
Method: as §1

[20] = tested on: Salmonella enteritidis G14; assay: MIC, serial dilution method in Müller-Hinton agar; type: cell-based; settings: Salmonella enterica
Method: as §1

[21] = tested on: Staphylococcus aureus MS353; assay: MIC, serial dilution method in Müller-Hinton agar; type: cell-based
Method: as §1

[22] = tested on: Micrococcus luteus ATCC9341; assay: MIC, serial dilution method in Müller-Hinton agar; type: cell-based; settings: 37°C, 18 hours
Method: as §1

[23] = tested on: Salmonella typhimurium IID971; assay: MIC, serial dilution method in Müller-Hinton agar; type: cell-based; settings: Salmonella enterica
Method: as §1

[24] = Test 1: urinary recovery after oral administration; type: in vivo; settings: mice (ICR-strain, female), 300 mcg per mouse, urine collected until 5 hours after administration, microbial assay, molar percentage
Method: To mice (ICR-strain, female, 4 weeks-aged) was orally administered a new cephalosporin compound according to this invention at a dosage of 300 mcg per mouse. Until the end of 5 hours after oral administration of the test cephalosporin compound, all the volumes of urine discharged by the treated mice were collected together, and the total amount of the test compound remaining in the collected urine was measured by a microbial assay method. The urinary recovery of the test compound was calculated in terms of percentage of the molar quantity of the test compound as recovered, against the molar quantity of the test compound as orally given.

[25] = Klebsiella pneumoniae, PCI602, 18 h
[26] = Proteus rettgeri IFO3850, Müller-Hinton agar, 37°C, 18 hours, read-out: MIC
[27] = Staphylococcus aureus, FDA209P, 18 h
[28] = Escherichia coli, K12C600, 18 h
[29] = Escherichia coli, NIHJJS2, 18 h
[30] = Salmonella enteritidis G14, Müller-Hinton agar, 37°C, 18 hours, read-out: MIC
[31] = Staphylococcus aureus FDA209P JC-1, Müller-Hinton agar, 37°C, 18 hours, read-out: MIC
[32] = Staphylococcus aureus MS353, Müller-Hinton agar, 37°C, 18 hours, read-out: MIC
[33] = K12C600, Escherichia coli K-12 C600, Müller-Hinton agar, 37°C, 18 hours, read-out: MIC
[34] = NIHJJS2, Escherichia coli NIHJ-JS-2, Müller-Hinton agar, 37°C, 18 hours, read-out: MIC

| Compound | MIC [1] [µg/mL] | MIC [2] [µg/mL] | MIC [3] [µg/mL] | MIC [4, 25] [µg/mL] | MIC [5] [µg/mL] | MIC [6] [µg/mL] | MIC [7] [µg/mL] | MIC [8, 26] [µg/mL] | MIC [10] [µg/mL] | MIC [11] [µg/mL] | MIC [13] [µg/mL] | MIC [14] [µg/mL] | MIC [15] [µg/mL] | MIC [16] [µg/mL] | MIC [17] [µg/mL] | MIC [19] [µg/mL] | MIC [20, 30] [µg/mL] | MIC [22] [µg/mL] | MIC ([23]; 18 h) [µg/mL] | dose excreted [24] [%] | also measured |
| --- | --- | --- | --- | --- | --- | --- | --- | --- | --- | --- | --- | --- | --- | --- | --- | --- | --- | --- | --- | --- | --- |
| CC1=C(C(=O)O)N2C(=O)[C@@H](NC(=O)[C@H](N)c3ccccc3)[C@H]2SC1 [CEX, Cefalexin, reference compound] | 12.5 (≈ 36 µM) | > 100 | 12.5 (≈ 36 µM) | 3.13 (≈ 9.01 µM) | > 100 | 25 (≈ 72 µM) | 3.13 (≈ 9.01 µM) | 12.5 (≈ 36 µM) | 6.25 (≈ 18 µM) | 12.5 (≈ 36 µM) | 0.2 (≈ 0.576 µM) | 6.25 (≈ 18 µM) | 0.78 (≈ 2.25 µM) | > 100 | 12.5 (≈ 36 µM) | 12.5 (≈ 36 µM) | > 100 | 0.1 (≈ 0.288 µM) | 6.25 (≈ 18 µM) | – | MIC [9, 27]: 3.13 µg/mL (≈ 9.01 µM); MIC [12, 28]: 6.25 µg/mL (≈ 18 µM); MIC [18, 29]: 6.25 µg/mL (≈ 18 µM); MIC ([21]; Staphylococcus aureus, MS353, 18 h): 3.13 µg/mL (≈ 9.01 µM) |
| CC1=C(C(=O)O)N2C(=O)C(NC(=O)[C@H](N)c3ccc(CO)c(O)c3)[C@H]2SC1 (stereo partly drawn) [Example 1 Compound, 7-{(R)-2-amino-2-(3-hydroxy-4-hydroxymethylphenyl)acetamido}-3-methyl-3-cephem-4-carboxylic acid] | 12.5 (≈ 31.8 µM) | > 100 | 12.5 (≈ 31.8 µM) | 6.25 (≈ 15.9 µM) | > 100 | > 100 | 6.25 (≈ 15.9 µM) | – | 12.5 (≈ 31.8 µM) | 100 (≈ 254 µM) | 0.2 (≈ 0.508 µM) | 12.5 (≈ 31.8 µM) | 0.78 (≈ 1.98 µM) | 100 (≈ 254 µM) | 100 (≈ 254 µM) | 12.5 (≈ 31.8 µM) | 50 (≈ 127 µM) | 0.1 (≈ 0.254 µM) | 6.25 (≈ 15.9 µM) | 65.1 | MIC ([8]; IFO3850, 18 h): 12.5 µg/mL (≈ 31.8 µM); MIC [9, 31]: 3.13 µg/mL (≈ 7.96 µM); MIC [12, 28]: 12.5 µg/mL (≈ 31.8 µM); MIC [18, 29]: 12.5 µg/mL (≈ 31.8 µM); MIC [21, 32]: 3.13 µg/mL (≈ 7.96 µM) |
| C/C=C\C1=C(C(=O)O)N2C(=O)C(NC(=O)[C@H](N)c3ccc(CO)c(OC)c3)[C@H]2SC1 (stereo partly drawn) [Example 5 Compound, 7-{(R)-2-amino-2-(4-hydroxymethyl-3-methoxyphenyl)acetamido}-3-{(Z)-1-propenyl}-3-cephem-4-carboxylic acid] | 25 (≈ 57.7 µM) | > 100 | 3.13 (≈ 7.22 µM) | – | 100 (≈ 231 µM) | 3.13 (≈ 7.22 µM) | 1.56 (≈ 3.6 µM) | 3.13 (≈ 7.22 µM) | 0.78 (≈ 1.8 µM) | > 100 | 0.1 (≈ 0.231 µM) | 0.39 (≈ 0.9 µM) | 0.05 (≈ 0.115 µM) | > 100 | 50 (≈ 115 µM) | 12.5 (≈ 28.8 µM) | 0.78 (≈ 1.8 µM) | 0.025 (≈ 0.0577 µM) | – | 47.9 | MIC ([4]; Klebsiella pneumoniae PCI602, Müller-Hinton agar, 37°C, 18 hours, read-out: MIC): 0.78 µg/mL (≈ 1.8 µM); MIC [9, 27]: 1.56 µg/mL (≈ 3.6 µM); MIC [12, 33]: 3.13 µg/mL (≈ 7.22 µM); MIC [18, 34]: 6.25 µg/mL (≈ 14.4 µM); MIC [21, 32]: 0.78 µg/mL (≈ 1.8 µM); MIC ([23]; Salmonella typhimurium IID971, Müller-Hinton agar, 37°C, 18 hours, read-out: MIC): 3.13 µg/mL (≈ 7.22 µM) |
| C=CC1=C(C(=O)O)N2C(=O)C(NC(=O)[C@H](N)c3ccc(CO)c(O)c3)[C@H]2SC1 (stereo partly drawn) [Example 3 Compound, 7-{(R)-2-amino-2-(3-hydroxy-4-hydroxymethylphenyl)acetamido}-3-vinyl-3-cephem-4-carboxylic acid] | 12.5 (≈ 30.8 µM) | > 100 | 12.5 (≈ 30.8 µM) | 3.13 (≈ 7.72 µM) | > 100 | 50 (≈ 123 µM) | 3.13 (≈ 7.72 µM) | 50 (≈ 123 µM) | 3.13 (≈ 7.72 µM) | > 100 | 0.2 (≈ 0.493 µM) | 3.13 (≈ 7.72 µM) | 0.05 (≈ 0.123 µM) | > 100 | 25 (≈ 61.7 µM) | 12.5 (≈ 30.8 µM) | – | 0.2 (≈ 0.493 µM) | 3.13 (≈ 7.72 µM) | 65 | MIC [9, 31]: 1.56 µg/mL (≈ 3.85 µM); MIC [12, 33]: 6.25 µg/mL (≈ 15.4 µM); MIC [18, 34]: 6.25 µg/mL (≈ 15.4 µM); MIC ([20]; ENTERITIDIS, 18 h): 3.13 µg/mL (≈ 7.72 µM); MIC [21, 32]: 1.56 µg/mL (≈ 3.85 µM) |
